Our source for the IC50 values is patent US20230382889A1 (Volastra Therapeutics, Inc., priority 2022, published 2023).

The structures appear in SMILES notation.

Sequence of hKIF18A (1-374) (Q8NI77 1-374): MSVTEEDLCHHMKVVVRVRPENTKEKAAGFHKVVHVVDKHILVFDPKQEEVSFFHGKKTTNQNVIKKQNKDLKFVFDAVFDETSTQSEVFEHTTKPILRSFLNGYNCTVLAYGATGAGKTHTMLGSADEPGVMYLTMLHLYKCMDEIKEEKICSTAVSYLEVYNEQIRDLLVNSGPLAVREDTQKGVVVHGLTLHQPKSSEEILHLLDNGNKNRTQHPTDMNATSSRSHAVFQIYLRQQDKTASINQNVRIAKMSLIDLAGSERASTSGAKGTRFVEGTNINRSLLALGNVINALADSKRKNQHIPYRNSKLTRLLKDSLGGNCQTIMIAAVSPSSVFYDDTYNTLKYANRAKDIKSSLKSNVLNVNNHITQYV

The experiment addresses hKIF18A (1-374) (Homo sapiens (Human), UniProt Q8NI77). Briefly: Inhibition of KIF18A microtubule-dependent ATPase activity (ADP-Glo). Conditions: 4 nM hKIF18A (1-374). The class given is biochemical. The method, then: Test compounds were plated in a 3× dilution scheme in a 384-well plate. Assay buffer: 80 mM PIPES (pH 6.9), 1 mM MgCl2, 75 mM KCl, 1 mM EGTA, 1 mM DTT, 0.01% BSA, 0.005% Tween-20, 1 μM Taxol in H2O. […] After incubation at room temperature for 30 min, 2.5 μL of microtubule mix was added [0.2 mg/mL pre-formed microtubules, 2.0 mM ATP in assay buffer], the plate was centrifuged for 30 s and then incubated at 28° C. for 60 min. 5 μL of Promega® ADP-Glo Max R1 was added, the plate was centrifuged for 30 s, and the mixture incubated for 4 h at room temperature. 10 μL of Promega® ADP-Glo Max R2 was added, the plate centrifuged for 30 s, and incubated for 60 min at room temperature. Luminescence was measured with an Envision plate reader, and % Inhibition was calculated for each well as: ([max−min]−[test−min])/[max−min]. IC50 values were calculated from concentration vs. % Inhibition data via a four-parameter variable slope model.
For orientation: In ADP-Glo the light output rises with the ADP produced.
As a reminder, the IC50 is the midpoint of a concentration-inhibition curve. Low readings indicate greater potency in that assay, high ones weaker potency in that assay. For `O=S(=O)(CCO)Nc1ccc(-n2cc(-c3ccn(C4CCC(F)(F)CC4)n3)nn2)c(N2CCC3(CC2)CC3)c1` [Compound 84, N-(4-(4-(1-(4,4-difluorocyclohexyl)-1H-pyrazol-3-yl)-1H-1,2,3-triazol-1-yl)-3-(6-azaspiro[2.5]octan-6-yl)phenyl)-2-hydroxyethane-1-sulfonamide], 8.2 nM corresponded to half-maximal inhibition (IC50). `CC(CO)S(=O)(=O)Nc1ccc(-n2cc(-c3cccc(N4CCC(F)(F)CC4)n3)nn2)c(N2CCC3(CC2)CC3)c1` (stereo not shown) [Compound 85, N-(4-(4-(6-(4,4-difluoropiperidin-1-yl)pyridin-2-yl)-1H-1,2,3-triazol-1-yl)-3-(6-azaspiro[2.5]octan-6-yl)phenyl)-1-hydroxypropane-2-sulfonamide] came in with an IC50 of 11 nM. Compound `O=S(=O)(CCO)Nc1ccc(-n2cc(-c3csc(N4CCC(F)(F)CC4)n3)nn2)c(N2CCCCC2)c1` [Compound 86, N-(4-(4-(2-(4,4-difluoropiperidin-1-yl)thiazol-4-yl)-1H-1,2,3-triazol-1-yl)-3-(piperidin-1-yl)phenyl)-2-hydroxyethane-1-sulfonamide] registered an IC50 of 27 nM. As for `Cc1cc(-c2cn(-c3ccc(NS(=O)(=O)CCO)cc3N3CCC4(CC4)C3)nn2)nc(N2CCC(F)(F)CC2)n1` [Compound 88, N-(4-(4-(2-(4,4-difluoropiperidin-1-yl)-6-methylpyrimidin-4-yl)-1H-1,2,3-triazol-1-yl)-3-(5-azaspiro[2.4]heptan-5-yl)phenyl)-2-hydroxyethane-1-sulfonamide], 120 nM corresponded to half-maximal inhibition (IC50). This IC50 lies about 4.4-fold higher than the previous one. Compound `O=C(c1ccc(-c2cn(-c3ccc(NS(=O)(=O)CCO)cc3N3CCC4(CC3)CC4)nn2)o1)C1CCCC1` [Compound 92, N-(4-(4-(5-(cyclopentanecarbonyl)furan-2-yl)-1H-1,2,3-triazol-1-yl)-3-(6-azaspiro[2.5]octan-6-yl)phenyl)-2-hydroxyethane-1-sulfonamide] yielded a half-inhibitory concentration (IC50) of 9.6 nM.

In the case of `O=S(=O)(CCO)Nc1ccc(-n2cc(-c3nc(N4CCC(F)(F)CC4)sc3F)nn2)c(N2CCC3(CC2)CC3)c1` [Compound 93, N-(4-(4-(2-(4,4-difluoropiperidin-1-yl)-5-fluorothiazol-4-yl)-1H-1,2,3-triazol-1-yl)-3-(6-azaspiro[2.5]octan-6-yl)phenyl)-2-hydroxyethane-1-sulfonamide], the IC50 is 10 nM. `Cc1cc(-c2cn(-c3ccc(NS(=O)(=O)CCO)cc3N3CCC4(CC3)CC4)nn2)nc(N2CCCC2)n1` [Compound 98, 2-hydroxy-N-(4-(4-(6-methyl-2-(pyrrolidin-1-yl)pyrimidin-4-yl)-1H-1,2,3-triazol-1-yl)-3-(6-azaspiro[2.5]octan-6-yl)phenyl)ethane-1-sulfonamide] displayed an IC50 of 12 nM. The compound `Cc1cc(-c2cn(-c3ccc(NS(=O)(=O)CCO)cc3N3CCC4(CC3)CC4)nn2)nc(N2CC3CC3C2)n1` (stereo not shown) [Compound 99, N-(4-(4-(2-(3-azabicyclo[3.1.0]hexan-3-yl)-6-methylpyrimidin-4-yl)-1H-1,2,3-triazol-1-yl)-3-(6-azaspiro[2.5]octan-6-yl)phenyl)-2-hydroxyethane-1-sulfonamide] displayed an IC50 of 8.1 nM. Consider `Cc1cc(-c2cn(-c3ccc(NS(=O)(=O)CCO)cc3N3CCC4(CC3)CC4)nn2)nc(N2CCC(F)C2)n1` (stereo not shown) [Compound 102, N-(4-(4-(2-(3-fluoropyrrolidin-1-yl)-6-methylpyrimidin-4-yl)-1H-1,2,3-triazol-1-yl)-3-(6-azaspiro[2.5]octan-6-yl)phenyl)-2-hydroxyethane-1-sulfonamide], for which the IC50 turned out to be 16 nM. `Cc1cc(-c2cn(-c3ccc(NS(=O)(=O)CCO)cc3N3CCC4(CC3)CC4)nn2)nc(N2CCC(C(F)F)C2)n1` (stereo not shown) [Compound 103, N-(4-(4-(2-(3-(difluoromethyl)pyrrolidin-1-yl)-6-methylpyrimidin-4-yl)-1H-1,2,3-triazol-1-yl)-3-(6-azaspiro[2.5]octan-6-yl)phenyl)-2-hydroxyethane-1-sulfonamide] gave an IC50 of 20 nM. Take `Cc1cc(-c2cn(-c3ccc(NS(=O)(=O)CCO)cc3N3CCC(C(F)F)CC3)nn2)nc(N2CCC(F)(F)CC2)c1` [Compound 104, N-(3-(4-(difluoromethyl)piperidin-1-yl)-4-(4-(6-(4,4-difluoropiperidin-1-yl)-4-methylpyridin-2-yl)-1H-1,2,3-triazol-1-yl)phenyl)-2-hydroxyethane-1-sulfonamide]: the IC50 was 15 nM. `Cc1cc(N2CCC(F)(F)CC2)nc(-n2cc(-c3ccc(NS(=O)(=O)C4CC4)cc3N3CCC4(CC3)CC4)nn2)c1` [Compound 105, N-(4-(1-(6-(4,4-difluoropiperidin-1-yl)-4-methylpyridin-2-yl)-1H-1,2,3-triazol-4-yl)-3-(6-azaspiro[2.5]octan-6-yl)phenyl)cyclopropanesulfonamide]: the IC50 amounted to 75 nM. `CCS(=O)(=O)Nc1ccc(-c2cn(-c3cc(C)cc(N4CCC(F)(F)CC4)n3)nn2)c(N2CCC3(CC2)CC3)c1` [Compound 108, N-(4-(1-(6-(4,4-difluoropiperidin-1-yl)-4-methylpyridin-2-yl)-1H-1,2,3-triazol-4-yl)-3-(6-azaspiro[2.5]octan-6-yl)phenyl)ethanesulfonamide]: the IC50 turned out to be 63 nM. With `O=S(=O)(CCO)Nc1ccc(-c2cn(-c3ccc(F)c(S(=O)(=O)N4CC(F)(F)C4)c3)nn2)c(N2CCC3(CC2)CC3)n1` [Compound 111, N-(5-(1-(3-((3,3-difluoroazetidin-1-yl)sulfonyl)-4-fluorophenyl)-1H-1,2,3-triazol-4-yl)-6-(6-azaspiro[2.5]octan-6-yl)pyridin-2-yl)-2-hydroxyethane-1-sulfonamide], the IC50 amounted to 68 nM.

In the case of `O=S(=O)(CCO)Nc1ccc(-c2cn(-c3cccc(OC4CCCC4)n3)nn2)c(N2CCC3(CC2)CC3)c1` [Compound 113, N-(4-(1-(6-(cyclopentyloxy)pyridin-2-yl)-1H-1,2,3-triazol-4-yl)-3-(6-azaspiro[2.5]octan-6-yl)phenyl)-2-hydroxyethane-1-sulfonamide], the IC50 was 23 nM.

`Cc1cc(-n2cc(-c3ccc(NS(=O)(=O)CCO)cc3N3CCC4(CC3)CC4)nn2)cc(N2CCC(F)(F)CC2)n1` [Compound 114] showed a half-maximal inhibitory concentration (IC50) of 58 nM. The compound `Cc1cc(-c2cn(-c3ccc(NS(=O)(=O)CCO)cc3N3CCC4(CC3)CC4)nn2)nc(N2C[C@@H](F)[C@H](F)C2)c1` [Compound 115, N-(4-(4-(6-((3R,4R)-3,4-difluoropyrrolidin-1-yl)-4-methylpyridin-2-yl)-1H-1,2,3-triazol-1-yl)-3-(6-azaspiro[2.5]octan-6-yl)phenyl)-2-hydroxyethane-1-sulfonamide] came in with an IC50 of 44 nM. `CCS(=O)(=O)Nc1ccc(-n2cc(-c3cccc(S(=O)(=O)NC(C)(C)C)c3)nn2)c(N2CCC(C(F)F)CC2)c1` [Compound 118, N-(tert-butyl)-3-(1-(2-(4-(difluoromethyl)piperidin-1-yl)-4-(ethylsulfonamido)phenyl)-1H-1,2,3-triazol-4-yl)benzenesulfonamide] registered a half-maximal inhibitory concentration (IC50) of 15 nM. Compared with the last compound, the IC50 is about 2.9-fold lower.

`Cn1cc(-c2cn(-c3ccc(NS(=O)(=O)CCO)cc3N3CCC4(CC3)CC4)nn2)nc1N1CCC(F)(F)CC1` [Compound 119, N-(4-(4-(2-(4,4-difluoropiperidin-1-yl)-1-methyl-1H-imidazol-4-yl)-1H-1,2,3-triazol-1-yl)-3-(6-azaspiro[2.5]octan-6-yl)phenyl)-2-hydroxyethane-1-sulfonamide] gave an IC50 of 42 nM. Compared with the last compound, the IC50 is about 2.8-fold higher.

The compound `CCS(=O)(=O)Nc1ccc(-n2cc(-c3ccc(F)c(S(=O)(=O)NC(C)(C)C)c3)nn2)c(N2CCC3(CC2)CC3)c1` [Compound 120, N-(tert-butyl)-5-(1-(4-(ethylsulfonamido)-2-(6-azaspiro[2.5]octan-6-yl)phenyl)-1H-1,2,3-triazol-4-yl)-2-fluorobenzenesulfonamide] had an IC50 of 19 nM.

Regarding `CC(C)(C)NS(=O)(=O)c1cccc(-c2cn(-c3ccc(NS(=O)(=O)CCO)cc3N3CCC4(CC3)CC4)nn2)c1` [Compound 121, N-(tert-butyl)-3-(1-(4-((2-hydroxyethyl)sulfonamido)-2-(6-azaspiro[2.5]octan-6-yl)phenyl)-1H-1,2,3-triazol-4-yl)benzenesulfonamide], the IC50 is 14 nM. The IC50 values of the last two compounds are within 1.5-fold of each other.

The compound `CC(C)(C)NS(=O)(=O)c1cccc(-c2cn(-c3ccc(NS(=O)(=O)C4(CO)CC4)cc3N3CCC4(CC3)CC4)nn2)c1` [Compound 122, N-(tert-butyl)-3-(1-(4-((1-(hydroxymethyl)cyclopropane)-1-sulfonamido)-2-(6-azaspiro[2.5]octan-6-yl)phenyl)-1H-1,2,3-triazol-4-yl)benzenesulfonamide] showed an IC50 of 18 nM. The compound `CCS(=O)(=O)Nc1ccc(-n2cc(-c3ccc(C(O)C4CCCC4)o3)nn2)c(N2CCC3(CC2)CC3)c1` (stereo not shown) [Compound 123, N-(4-(4-(5-(cyclopentyl(hydroxy)methyl)furan-2-yl)-1H-1,2,3-triazol-1-yl)-3-(6-azaspiro[2.5]octan-6-yl)phenyl)ethanesulfonamide] returned an IC50 of 4.6 nM. This IC50 lies about 3.9-fold lower than the previous one. To `Cc1ncc(-c2cn(-c3ccc(NS(=O)(=O)CCO)cc3N3CCC4(CC3)CC4)nn2)nc1N1CCC(F)(F)CC1` [Compound 124, N-(4-(4-(6-(4,4-difluoropiperidin-1-yl)-5-methylpyrazin-2-yl)-1H-1,2,3-triazol-1-yl)-3-(6-azaspiro[2.5]octan-6-yl)phenyl)-2-hydroxyethane-1-sulfonamide] belongs 7.3 nM; to `O=S(=O)(CCO)Nc1ccc(-n2cc(-c3ccc(C4=CCCC4)o3)nn2)c(N2CCC3(CC2)CC3)c1` [Compound 125, N-(4-(4-(5-(cyclopent-1-en-1-yl)furan-2-yl)-1H-1,2,3-triazol-1-yl)-3-(6-azaspiro[2.5]octan-6-yl)phenyl)-2-hydroxyethane-1-sulfonamide], 9 nM.
